“Also recorded” adds a separate entry of the source. Marks after values point to notes of the source that are not given here.
Key:
[1] = tested on: rats, formalin-injected hind paw; experiment: Formalin-induced flinching (paw formalin test); format: in vivo, rat
Description: In recent work it was shown that inhibition of spinal p38 MAP kinase attenuated formalin-induced flinching. Svensson et al., J Neurochem 86: 1534-1544, 2003b. To examine the contribution of p38α and p38β in this experimental model of hyperalgesia, animals were injected with p38α, p38β AS or MS IT for five days. These animals were then examined on the formalin test. Unilateral intraplantar formalin solution (2.5%) caused a biphasic flinching pattern where the first 9 minutes are referred to as phase I and the following 50 minutes (min 10-60) as phase II. Yaksh et al., J Neurosci 21: 5847-5853, 2001a. The phase II flinching is considered to represent afferent input initiated spinal facilitation. Dickenson and Sullivan, Neurosci Lett 83: 207-211, 1987; Puig and Sorkin, Pain 64: 345-355, 1996. […] To further confirm the role of p38 to injury-induced pain behavior, a pharmacological inhibitor was also studied: SB203580, a p38α/β non-selective inhibitor.
To quantify formalin induced flinching, an automated sensing system was employed. Yaksh et al., J Appl Physiol 90: 2386-2402, 2001b. Briefly, a soft metal band was placed on the hind paw of the animal being tested. Animals were allowed to acclimate in individual Plexiglas chambers for 30 min before being moved to a test chamber. Just before the animals were placed into the test chamber, they were briefly restrained in a cloth towel, and 2.5% formalin (50 μl) was injected into the dorsal side of the banded paw. Nociceptive behavior was quantified by automatically counting the incidences of spontaneous flinching or shaking of the injected paw. The flinches were counted for 1-min periods for 60 minutes and the flinch data are expressed as number of flinches per min and total flinches observed during phase I (0-9 min) and phase II (10-60 min).

p38α = experiment: Western blot of spinal p38α protein expression after IT antisense; format: in vivo, rat; conditions: for p38α protein expression, % Expression Compared to Missense: spinal cord at day six, MS=100%, mean ±SEM n=6; for spinal p38α protein expression compared to missense (MS)-treated animals (in words): five days of IT bolus injections, p38α AS 10-30 μg (30 μg: P<0.05), p38β AS 10-20 μg
Source text: It has previously been shown that inhibition of spinal p38 MAP kinase prevents both inflammation-evoked hyperalgesia and nerve injury-induced allodynia. Ji et al., Neuron 36: 57-68, 2002; Schafers et al., J Neurosci 23: 2517-2521, 2003; Svensson et al., Neuroreport 14: 1153-1157, 2003a.; Svensson et al., J Neurochem 86: 1534-1544, 2003b. It still remains to be determined whether only one or both of the p38 isoforms, that are present in the spinal cord, are involved in modulation of spinal nociceptive processing. Since there is no specific p38 isoform inhibitors available, rats were treated intrathecally with isoform specific antisense oligonucleotides (AS) in order to knock down p38α and p38β respectively. […] There were no differences between the AS-, MS- or vehicle-treated groups in terms of weight gain or motor function. The specificity of the effects of these two antisense oligonucleotides was also examined. Western blot membranes were stripped and re-incubated the with the other p38 isoform antibody. […] In Table 1, antisense was given IT once daily for 5 days and protein expression assayed in spinal chord at day six compared to protein level detected in missense treated animals (MS=100%). Each group represents mean ±SEM, n=6 per group. (*) represents P<0.05 as compared to the missense group.
Antisense oligonucleotides. Three oligonucleotides (a kind gift from ISIS Pharmaceuticals Inc.) with lengths of 20 nucleotides were employed in the study: ISIS 101757 (p38α AS) […], beginning at position 1081 in the rat p38α mRNA; ISIS 107211 (p38βAS) […], beginning at position 439 in the rat p38β mRNA; and ISIS141923 (an universe MS control) […]. These oligonucleotides were synthesized as 2′-methoxyethyl (MOE) phosphorothioate chimeric oligonucleotides in which the first and last five bases contained MOE modifications with a uniform phosphorothioate backbone. Butler et al., Diabetes 51: 1028-1034, 2002. The oligonucleotides were dissolved in artificial cerebrospinal fluid (ACSF) immediately prior to intrathecal administration. The ACSF contained (mM) 151.1 Na+, 2.6 K+, 0.9 Mg2+, 1.3 Ca 2+, 122.7 Cl−, 21.0 HCO3, 2.5 HPO4 and was bubbled with 95% O2/5% CO2 before use to adjust the final pH to 7.2. AS and MS (10-30 μg) was administrated in 10 μl ACSF followed by 10 μl saline daily for five days and behavioral experiments and spinal tissue collection performed on day six.
Western blot. Prior to sacrifice, rats were deeply anesthetized and after decapitation the spinal cords were ejected from the vertebral column by a saline-filled syringe. The lumbar part of the spinal cord was immediately homogenized in extraction buffer (50 mM Tris buffer, pH 8.0, containing 0.5% Triton X-100, 150 mM NaCl, 1 mM EDTA, phosphatase and protease inhibitors) by sonication. The tissue extracts were subjected to denaturing NuPAGE 4-12% Bis-Tris gel electrophoresis and then transferred to nitrocellulose membranes (Micronic Separation Inc. Westborough, Mass.). After blocking nonspecific binding sites with 5% low-fat milk in PBS containing 0.1% Tween 20 (PBS-T) for 1 hour in room temperature, the membranes were incubated with antibodies overnight at 4° C. After washing, the antibody-protein complexes were probed with appropriate secondary antibodies labeled with horseradish peroxidase for 1 hr at room temperature and detected with chemiluminescent reagents (SuperSignal, Pierce, Rockford, Ill.). […]

Row | Substance | total number of flinches during phase I or II ([1]; IT oligonucleotide daily for 5 days, 2.5% formalin into paw, compared with IT saline or MS) | p38α protein expression, % Expression Compared to Missense (p38α; IT antisense 10 μg once daily for 5 days) | p38α protein expression, % Expression Compared to Missense (p38α; IT antisense 30 μg once daily for 5 days) | spinal p38α protein expression compared to missense (MS)-treated animals (in words) (p38α) | number of flinches during phase two ([1]; IT p38β AS (3-20 μg) daily for 5 days, compared to saline and MS treated animals, P<0.05 (10 and 20 μg)) | p38α protein expression, % Expression Compared to Missense (p38α; IT antisense 20 μg once daily for 5 days)
1 | p38α AS: 20-nucleotide 2′-MOE phosphorothioate chimeric antisense AGGTGCTCAGGACTCCATTT, beginning at position 1081 in the rat p38α mRNA (all phosphorothioate, sugars by position and methylation of C not given here; 2'-MOE chimeric (gapmer) antisense) | did not differ; also recorded: no statistical difference | 59 ± 26% | 39 ± 8* % | significant down-regulation; also recorded: knocked down | – | –
2 | p38β AS: 20-nucleotide 2′-MOE phosphorothioate chimeric antisense GTATGTCCTCCTCGCGTGGA, beginning at position 439 in the rat p38β mRNA (all phosphorothioate, sugars by position and methylation of C not given here; 2'-MOE chimeric (gapmer) antisense) | – | – | – | somewhat increased | statistical significant reduction; also recorded: statistically different | 205 ± 65* %
